# Test results as given in paper PMC12287357, “Bacterial effectors mediate kinase reprogramming through mimicry of conserved eukaryotic motifs” (EMBO Reports, 2025).
# Square brackets hold non-standard residues; d marks the D form. Peptide text beside a SMILES is read from it. pY = N[C@@H](Cc1ccc(OP(=O)(O)O)cc1)C(=O)O; pS = N[C@@H](COP(=O)(O)O)C(=O)O
# Molecular target: T1, His6STAT3^127-715 (Homo sapiens, UniProt P40763)
# T1 construct: made in house; host or cells: E. coli BL21 (DE3)
# Assay: Biolayer interferometry (BLI): SteE^138-148 phosphopeptides binding to recombinant STAT3
# Details: Octet R8, 25 °C, biotinylated peptide immobilised on streptavidin sensors, pH 7.7, 0.005% Tween-20, steady-state one-site fit, read-out: Kd (affinity of SteE^138-148 phosphorylated peptide for STAT3)
# Protocol: Recombinant Salmonella Typhimurium His6-SteE^ΔN20 and human His6-STAT3^127-715 were ligated into pET49 vector using Gibson Assembly; the N-terminal His6-tag is cleavable with HRV 3 C protease.
# Binding affinities of His6-STAT3^127-715 to SteE peptides were derived from […] measured on an Octet R8 system (Sartorius) at 25 °C. Biotinylated SteE peptides were synthesised by the Chemical Biology Science Technology Platform at the Francis Crick Institute and dissolved from lyophilised stock in the respective protein buffer to which 0.005% Tween-20 was added (BLI buffer). Appropriate serial dilutions of His6-STAT3^127-715 were prepared in 25 mM HEPES, 200 mM NaCl, 10 mM MgCl2, 0.5 mM TCEP at pH 7.7. SteE peptides were immobilised on Streptavidin (SA) sensors at 0.2 µg/mL by incubation until the linear signal increase started to plateau (up to 160 s), followed by a sensor wash in BLI buffer for 50 s to stabilise the baseline. Association was recorded by incubating the sensors with His6-STAT3^127-715 for 300 s. Subsequent dissociation in BLI buffer was followed for up to 300 s. Data were acquired using Octet BLI Discovery software 12.2.2.20 and processed with Octet BLI Analysis software 12.2.2.4 by subtraction of reference wells without protein and y alignment of the data to the baseline. […]
# T1 sequence (P40763 127-715): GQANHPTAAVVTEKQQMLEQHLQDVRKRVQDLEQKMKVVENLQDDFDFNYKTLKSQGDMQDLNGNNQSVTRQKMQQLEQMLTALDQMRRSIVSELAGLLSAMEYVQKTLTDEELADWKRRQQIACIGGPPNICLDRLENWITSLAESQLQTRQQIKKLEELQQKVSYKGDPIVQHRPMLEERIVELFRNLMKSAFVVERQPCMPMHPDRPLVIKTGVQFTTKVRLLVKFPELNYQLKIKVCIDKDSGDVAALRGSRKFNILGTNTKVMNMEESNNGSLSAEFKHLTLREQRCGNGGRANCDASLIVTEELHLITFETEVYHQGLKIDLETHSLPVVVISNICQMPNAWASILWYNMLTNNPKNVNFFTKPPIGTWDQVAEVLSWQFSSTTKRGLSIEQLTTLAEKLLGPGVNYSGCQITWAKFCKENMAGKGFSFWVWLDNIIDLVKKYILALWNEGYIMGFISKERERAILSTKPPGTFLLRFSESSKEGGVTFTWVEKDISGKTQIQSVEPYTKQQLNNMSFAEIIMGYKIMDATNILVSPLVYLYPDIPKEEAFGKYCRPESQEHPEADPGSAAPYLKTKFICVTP
compound,measurement,value
CC[C@H](C)[C@H](NC(=O)[C@H](Cc1ccc(OP(=O)(O)O)cc1)NC(=O)CNC(=O)[C@H](COP(=O)(O)O)NC(=O)[C@@H]1CCCN1C(=O)[C@@H]1CCCN1C(=O)[C@@H](N)CC(N)=O)C(=O)N[C@@H](C)C(=O)N[C@@H](CCC(N)=O)C(=O)N[C@@H](Cc1ccc(O)cc1)C(=O)N[C@@H](CCCNC(=N)N)C(=O)O [SteE_pS141pY143] (H-NPP[pS]G[pY]IAQYR-OH),Kd,1400 ± 80 nM
